≈ marks a conversion by molar mass, not a printed value. Where two headings read alike, the source gives them in different places.
Assays:
[1] = molecular target: aureolysin (Staphylococcus aureus, UniProt P81177); assay: Degradation by protease, SDS-PAGE; conditions: 5 μg peptide, 0.05 μg protease, PBS, 25 μL, 37 °C, 1 h and 18 h, Coomassie
Method: (§1) After incubation samples were immediately frozen at −80 °C. Samples were separated on SDS-PAGE under denaturing condition in 4–16% gels. After separation, the gels underwent colloid Coomassie staining.

[2] = molecular target: V8 protease (Staphylococcus aureus, UniProt P0C1U8); assay: Degradation by protease, SDS-PAGE; conditions: 5 μg peptide, 0.05 μg protease, PBS, 25 μL, 37 °C, 1 h and 18 h, Coomassie
Sequence of V8 protease (P0C1U8 69-336): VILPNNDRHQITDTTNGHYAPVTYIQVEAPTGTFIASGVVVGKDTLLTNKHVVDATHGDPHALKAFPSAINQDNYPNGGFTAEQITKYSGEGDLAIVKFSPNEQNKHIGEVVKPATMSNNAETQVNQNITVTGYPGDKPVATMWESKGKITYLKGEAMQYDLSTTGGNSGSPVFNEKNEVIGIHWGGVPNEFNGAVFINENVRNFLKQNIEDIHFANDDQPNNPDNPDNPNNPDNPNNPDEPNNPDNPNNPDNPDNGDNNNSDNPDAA
Method: as §1

[3] = molecular target: cathepsin G (Homo sapiens, UniProt P08311)
Sequence of cathepsin G (P08311 21-255): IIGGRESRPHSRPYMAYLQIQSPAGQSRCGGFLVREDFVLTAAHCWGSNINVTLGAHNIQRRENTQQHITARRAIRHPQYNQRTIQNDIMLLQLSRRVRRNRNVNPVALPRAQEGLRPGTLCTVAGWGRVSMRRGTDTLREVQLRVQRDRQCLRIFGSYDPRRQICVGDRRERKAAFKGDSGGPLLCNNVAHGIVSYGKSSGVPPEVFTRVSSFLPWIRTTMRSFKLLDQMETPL
Method: as §1

[4] = molecular target: neutrophil elastase (Homo sapiens, UniProt P08246); conditions: 5 μg peptide, 0.05 μg protease, PBS, 25 μL, 37 °C, 1 h and 18 h; SDS-PAGE, Coomassie
Sequence of neutrophil elastase (P08246 30-267): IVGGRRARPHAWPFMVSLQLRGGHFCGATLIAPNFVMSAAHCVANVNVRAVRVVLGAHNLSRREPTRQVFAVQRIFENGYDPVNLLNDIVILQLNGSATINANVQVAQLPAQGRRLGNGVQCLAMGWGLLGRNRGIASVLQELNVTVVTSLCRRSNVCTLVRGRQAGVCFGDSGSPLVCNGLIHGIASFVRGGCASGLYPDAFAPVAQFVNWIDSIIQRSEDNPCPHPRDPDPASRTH
Method: as §1

[5] = molecular target: recombinant human PAD4 (Homo sapiens, UniProt Q9UM07)
Sequence of recombinant human PAD4 (Q9UM07 whole entry): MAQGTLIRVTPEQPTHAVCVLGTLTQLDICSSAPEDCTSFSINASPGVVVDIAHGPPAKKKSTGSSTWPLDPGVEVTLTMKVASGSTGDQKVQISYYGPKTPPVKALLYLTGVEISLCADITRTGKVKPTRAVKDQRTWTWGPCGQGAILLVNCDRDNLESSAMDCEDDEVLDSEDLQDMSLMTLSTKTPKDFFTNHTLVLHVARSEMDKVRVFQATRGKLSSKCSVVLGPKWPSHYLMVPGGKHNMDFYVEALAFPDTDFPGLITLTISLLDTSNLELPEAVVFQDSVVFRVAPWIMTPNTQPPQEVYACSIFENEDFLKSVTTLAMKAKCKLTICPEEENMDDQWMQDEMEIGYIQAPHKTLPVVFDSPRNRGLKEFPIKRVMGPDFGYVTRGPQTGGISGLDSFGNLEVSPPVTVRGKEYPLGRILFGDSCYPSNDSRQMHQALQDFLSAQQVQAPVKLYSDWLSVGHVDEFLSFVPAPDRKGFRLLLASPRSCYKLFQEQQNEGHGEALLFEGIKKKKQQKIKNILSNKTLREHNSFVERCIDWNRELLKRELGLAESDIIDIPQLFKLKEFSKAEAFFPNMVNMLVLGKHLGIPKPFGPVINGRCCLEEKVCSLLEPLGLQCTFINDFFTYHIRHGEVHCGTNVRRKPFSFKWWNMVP
Method: PAD4 activity was determined on N-α-benzoyl-L-arginine ethyl ester hydrochloride (BAEE) substrate with colorimetric assay [33].
Citrullination was terminated by snap-freezing the samples.
Reaction was terminated by addition of TFA (final concentration 0.1%) (Sigma) and samples were analyzed via HPLC. Separation was achieved on a reverse-phase column Aeris XB-C18, 3.6 μm, 4.6/150 (Phenomenex) connected to ÄKTAmicro (GE Healthcare). Peptides were eluted in the gradient of Phase A (0.1% TFA in water) and Phase B (80% acetonitrile, 0.08% TFA in water) and monitored at 215 nm.

[6] = system: P. aeruginosa; assay type: cell-based, Pseudomonas aeruginosa (clinical isolate)
Method: (§2) Escherichia coli ATCC 25922 and Pseudomonas aeruginosa (clinical isolate) were inoculated from stocks into 20 mL LB Broth Lennox, while Staphylococcus aureus Δaur (8325-4 Δaur) into 20 mL TSB and grown overnight at 37 °C under constant rotation (180 rpm) to a mid-logarithmic growth phase. Then they were centrifuged at 5000× g for 5 min, washed in PBS, and resuspended in PBS to the desired OD (600 nm).
(§3) Mueller-Hinton broth (MHB, Sigma-Aldrich) was used as the working medium for all bacterial strains. Briefly, inoculum was prepared from freshly grown cultures of bacteria being at their exponential phase of growth. Each well of 96-well plates containing 100 μL of serially diluted peptides in PBS at desired concentration was inoculated with 100 μL of 1 × 10^5 (CFU) mL^−1 of bacterial suspensions. Then, plates were incubated overnight at 37 °C and absorbance was read at 590 nm in a Flex Station 3 multi-mode microplate reader (Molecular Devices). An absorbance reading in wells without a peptide representing unrestrained bacterial growth was taken as positive control (100% bacterial survival). Readings in wells without bacteria were taken as negative controls. All measurements were run in triplicates.

[7] = system: E. coli; assay type: cell-based, Escherichia coli ATCC 25922
Method: as §2, §3

[8] = system: HaCaT cells; assay: LDH release cytotoxicity assay; assay type: cell-based, human; conditions: 24 h, n = 2
Method: The cell line of human immortalized keratinocytes (HaCaT) was obtained from American Type Culture Collection (ATCC, Manassas, VA, USA) and cultured in DMEM (Gibco, Life Technologies, Paisley, UK) supplemented with 10% heat-inactivated fetal bovine serum (FBS) and PEST (100 U/mL penicillin and 100 U/mL streptomycin) at 37 °C in humidified 5% CO2 atmosphere. Cells were passaged every 4–5 days. To assess the effect of peptides on the integrity of the plasma membrane, the LDH release assay was performed using the CytoTox96 nonradioactive cytotoxicity assay kit (Promega, Madison, WI, USA) according to the manufacturer’s instructions. Cytotoxicity was calculated with the formula: % cytotoxicity = 100 × (experimental LDH release/maximum LDH release), where maximum LDH release occurs after the addition of lysis solution (Triton X-100). Relative amounts of LDH release were measured (absorbance at 490 nm) using FlexStation 3 Multimode Microplate Reader (Molecular Device, Wokingham, UK). All assays were performed in duplicate.

[9] = cited from earlier work
Excerpt: The slower hydrolysis rate of homoarginine-containing peptides compared with their arginine-containing counterparts depend ...

[10] = system: venous leg ulcers; conditions: patients with venous leg ulcers; cited from earlier work
Excerpt: Current research is partly focused on peptide-based compounds.

Sequence of aureolysin (P81177 209-509): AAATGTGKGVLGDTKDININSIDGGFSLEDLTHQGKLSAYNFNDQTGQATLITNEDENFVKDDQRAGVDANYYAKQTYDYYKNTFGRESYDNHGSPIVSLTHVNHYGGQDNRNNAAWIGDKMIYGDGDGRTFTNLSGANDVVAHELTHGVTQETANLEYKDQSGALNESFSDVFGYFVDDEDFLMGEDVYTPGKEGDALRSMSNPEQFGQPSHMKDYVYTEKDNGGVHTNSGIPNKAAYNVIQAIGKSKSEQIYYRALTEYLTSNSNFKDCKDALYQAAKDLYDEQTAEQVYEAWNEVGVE

Row | SMILES | Degradation by aureolysin [1] | Degradation by V8 protease [2] | Degradation by cathepsin G [3] | Degradation by neutrophil elastase [4] | Modification (citrullination) by PAD4 [5] | MIC (minimal inhibitory concentration) [6] | MIC (minimal inhibitory concentration) [7] | Toxicity, LDH release ([8]; peptide 10 μg/mL) | Toxicity, LDH release ([8]; peptide 25 μg/mL) | Toxicity, LDH release ([8]; peptide 75 μg/mL) | Degradation by cathepsin G ([3]; 5 μg peptide, 0.5 μg protease, PBS, 25 μL, 37 °C, 1 h and 18 h, SDS-PAGE, Coomassie) | Degradation in NETs [9] | Safety and tolerability [10]
1 | CC[C@H](C)[C@H](NC(=O)[C@H](CCCCN)NC(=O)[C@H](CCC(=O)O)NC(=O)[C@H](CCCCN)NC(=O)[C@H](CO)NC(=O)[C@H](CCCCN)NC(=O)[C@H](CCCCNC(=N)N)NC(=O)[C@H](Cc1ccccc1)NC(=O)[C@H](Cc1ccccc1)NC(=O)[C@H](CC(=O)O)NC(=O)CNC(=O)[C@H](CC(C)C)NC(=O)[C@@H](N)CC(C)C)C(=O)NCC(=O)N[C@@H](CCCCN)C(=O)N[C@@H](CCC(=O)O)C(=O)N[C@@H](Cc1ccccc1)C(=O)N[C@@H](CCCCN)C(=O)N[C@@H](CCCCNC(=N)N)C(=O)N[C@H](C(=O)N[C@H](C(=O)N[C@@H](CCC(N)=O)C(=O)N[C@@H](CCCCNC(=N)N)C(=O)N[C@H](C(=O)N[C@@H](CCCCN)C(=O)N[C@@H](CC(=O)O)C(=O)N[C@@H](Cc1ccccc1)C(=O)N[C@@H](CC(C)C)C(=O)N[C@@H](CCCCNC(=N)N)C(=O)N[C@@H](CC(N)=O)C(=O)N[C@@H](CC(C)C)C(=O)N[C@H](C(=O)N1CCC[C@H]1C(=O)N[C@@H](CCCCNC(=N)N)C(=O)N[C@H](C(=O)N[C@@H](CCC(=O)O)C(=O)N[C@@H](CO)C(=O)O)[C@@H](C)O)C(C)C)[C@@H](C)CC)C(C)C)[C@@H](C)CC [hArg-LL-37] | similarly sensitive | similarly sensitive | did not differ | degraded more rapidly by neutrophil elastase than LL-37 | did not evidently modify | 50 µg/mL (≈ 11 µM) | 50 µg/mL (≈ 11 µM) |  |  |  |  |  | 
2 | CC[C@H](C)[C@H](NC(=O)[C@H](CCCCN)NC(=O)[C@H](CCC(=O)O)NC(=O)[C@H](CCCCN)NC(=O)[C@H](CO)NC(=O)[C@H](CCCCN)NC(=O)[C@H](CCCNC(=N)N)NC(=O)[C@H](Cc1ccccc1)NC(=O)[C@H](Cc1ccccc1)NC(=O)[C@H](CC(=O)O)NC(=O)CNC(=O)[C@H](CC(C)C)NC(=O)[C@@H](N)CC(C)C)C(=O)NCC(=O)N[C@@H](CCCCN)C(=O)N[C@@H](CCC(=O)O)C(=O)N[C@@H](Cc1ccccc1)C(=O)N[C@@H](CCCCN)C(=O)N[C@@H](CCCNC(=N)N)C(=O)N[C@H](C(=O)N[C@H](C(=O)N[C@@H](CCC(N)=O)C(=O)N[C@@H](CCCNC(=N)N)C(=O)N[C@H](C(=O)N[C@@H](CCCCN)C(=O)N[C@@H](CC(=O)O)C(=O)N[C@@H](Cc1ccccc1)C(=O)N[C@@H](CC(C)C)C(=O)N[C@@H](CCCNC(=N)N)C(=O)N[C@@H](CC(N)=O)C(=O)N[C@@H](CC(C)C)C(=O)N[C@H](C(=O)N1CCC[C@H]1C(=O)N[C@@H](CCCNC(=N)N)C(=O)N[C@H](C(=O)N[C@@H](CCC(=O)O)C(=O)N[C@@H](CO)C(=O)O)[C@@H](C)O)C(C)C)[C@@H](C)CC)C(C)C)[C@@H](C)CC [LL-37] | similarly sensitive | similarly sensitive |  |  |  |  |  | did not compromise the membrane permeability | did not compromise the membrane permeability | low, but still significant, release of LDH | did not differ | gradually degraded | no safety or tolerability concerns were noted

From PMC7730452, “Citrullination-Resistant LL-37 Is a Potent Antimicrobial Agent in the Inflammatory Environment High in Arginine Deiminase Activity” (International Journal of Molecular Sciences, 2020)
